The values below come from publication PMC5980995, “An allostatic mechanism for M2 pyruvate kinase as an amino-acid sensor” (Biochemical Journal, 2018).

Assay [1] has as its target T1, M2PYK (Homo sapiens, UniProt P14618).
T1 construct: and N-terminal domain (blue, residues 13–43. Residues 1–12, as well as additional residues from the His6-tagged construct); made in house; host or cells: Escherichia coli BL21(DE3), pET28a
The assay is described as follows: Enzyme kinetics of M2PYK for PEP with saturating ADP in presence of amino acids. It is filed as biochemical. As to conditions: kinetic curves at different inhibitor concentrations. The protocol:
For the determination of kinetics of M2PYK in the absence/presence of amino acid modulators, enzymatic activity assays were performed as follows. A 5 µl aliquot of 0.002 mg/ml M2PYK in PBS-CM was incubated with different concentrations of amino acids in PBS-CM supplemented with 1 mM dithiothreitol at 37°C at pH 7.4 for 10 min. Then, the same volume of assay buffer [PBS-CM supplemented with 10 mM MgCl2, 100 mM KCl, 1 mM NADH, 40 µmol/min ml LDH, as well as saturating ADP (4 mM) and titrated substrate PEP (0.15–10 mM)] was added. […] For these uncompetitive inhibitors the Ki values were calculated to be equal to IC50/2.
Values of the kinetic parameters (Vmax, K0.5(PEP), and nH) were determined by fitting the equation below to the data. V=Vmax×[PEP]^nH/K0.5nH+[PEP]^nH The Lineweaver–Burk plots were fit using the equation below: Y=K0.5nH+(1/x)^nH/Vmax×(1/x)^nH The Berkley Madonna software (http://www.berkeleymadonna.com/) was used to model approximate proportions of monomer and tetramer M2PYK at given total protein concentrations. The calculation was based on a simplified tetramer [T] monomer [M] equilibrium: [T]⇌[M]+[M]+[M]+[M]withKd=[M]^4/[T] […] The association rate constant was scaled to give a Kd of 0.9 µM, which was estimated from analytical gel chromatography results.
The kinetic curves are shown in Figure 4 and Supplementary Figure S4.

Assay [2] deals with T1, M2PYK. Briefly: M2PYK activity at sub-saturating PEP and ADP: amino-acid IC50/Ki and serine versus alanine/phenylalanine competition. Format: biochemical. The settings on record: for Ki: calculated as IC50/2 (uncompetitive inhibitors), read-out: inhibitor constant (Ki) against M2PYK; for IC50: sub-saturating PEP and ADP, 0 µM serine, read-out: IC50 against M2PYK. The protocol:
For the determination of kinetics of M2PYK in the absence/presence of amino acid modulators, enzymatic activity assays were performed as follows. A 5 µl aliquot of 0.002 mg/ml M2PYK in PBS-CM was incubated with different concentrations of amino acids in PBS-CM supplemented with 1 mM dithiothreitol at 37°C at pH 7.4 for 10 min. […] For these uncompetitive inhibitors the Ki values were calculated to be equal to IC50/2.
The decrease in absorbance at 340 nm was measured for 5 min at 37°C using a plate reader. […]

Assay [3] addresses T1, M2PYK. The assay is described as follows: Analytical gel chromatography of M2PYK oligomerisation/dissociation. The settings on record: 10 mM amino acid; 0.1 mg/ml M2PYK; PBS-CM pH 7.4, room temperature, 12 h. The protocol:
Analytical gel chromatography was performed to characterise the oligomerisation/dissociation of M2PYK in the presence/absence of different amino acids. Aliquots of 400 µl of 0.1 mg/ml purified M2PYK were incubated with or without 10 mM amino acids in PBS-CM at room temperature at pH 7.4 overnight. After the incubation, samples were loaded independently onto a Superdex 200 PC 3.2/30 gel-filtration column. Samples of 25 µl were injected, and the column flow rate was maintained at 0.1 ml/min. Protein peaks were monitored using the absorbance at both 280 and 214 nm. The retention volumes for the M2PYK peaks were the same as those identified by SEC-MALS as monomer and tetramer peaks (using the same Superdex 200 column) in our previous study.
Analytical gel chromatography was used to investigate the effects of amino acids on the oligomerisation of M2PYK. […] Dissociation studies of M2PYK using SEC-MALS [13] and ultracentrifugation show the predominant forms in solution are tetramer and monomer.

In assay [4] the target is T1, M2PYK. Briefly: ELISA with anti-M2PYK antibody binding the C–C interface (monomer–tetramer equilibrium). The settings on record: 10 mM amino acid; 0.0039–2.5 µg/ml M2PYK; 1 h, pH 7.4, room temperature. The text has this: For the production of specific antibodies, a peptide immunogen (Supplementary Figure S1) specific for M2PYK was covalently conjugated with the carrier protein BSA, and injected into Balb/c female mice (6–7 weeks) at 2-week intervals. A mouse showing best selectivity for M2PYK was chosen as a spleen donor. After the production of a hybridoma, a cell line secreting a specific monoclonal antibody was screened and expanded. The specific monoclonal antibody against M2PYK was identified, purified and conjugated with horseradish peroxidase (HRP) for further ELISAs.
A stock solution of anti-His-tag antibody in carbonate buffer (pH 9.6) was coated onto wells at 50 µl/well at 4°C overnight. The wells were then blocked with 100 µl/well of PBS/Tween 20/3% BSA for 1 h at room temperature. Titrated M2PYK (2.5–0.0039 µg/ml) was incubated with or without ligands (10 mM for all amino acids and 1 mM for FBP) in PBS/Tween 20/3% BSA at room temperature for 1 h. Then, 100 µl of the solution was added to each prepared well for an incubation of 1 h. Afterwards, a 100 µl aliquot of PBS/Tween 20/3% BSA containing 4 µg/ml HRP-conjugated M2PYK antibody was added to each well and incubated for 1 h at room temperature. Electrochemiluminescence solution was added at 50 µl/well to develop the luminescence, which was read immediately with a plate reader. Three washes with PBS/Tween 20/3% BSA were performed between each step.
To investigate the effect of ligand binding on monomer–tetramer equilibrium at lower protein concentrations, we developed an ELISA assay. […] As the epitope is hidden in the tetrameric form of M2PYK, antibody binding on the C–C interface of M2PYK reflects the amount of monomer/dimer but not tetramer. The ELISA tests were performed using low concentrations of His6-M1/2PYK (0.0039–2.5 µg/ml) incubated with no ligand or 10 mM of each amino acid for 1 h in PBS-CM at pH 7.4 at room temperature. The incubated solutions were added to 96-well plates precoated with anti-His-tag antibodies. HRP-conjugated M2PYK antibodies were then incubated, followed by luminescence reading.
(An ELISA detects its analyte on a solid surface through an enzyme-linked reagent.)

Assay [5] addresses T1, M2PYK. Briefly: X-ray co-crystal structures of M2PYK with amino acids. As to conditions: wild-type M2PYK co-crystallised with the amino acid. The protocol: Single crystals of M2PYK were obtained at 17°C by vapour diffusion using the hanging-drop technique. The drops were formed by mixing 1.5 µl of wild-type M2PYK (20 mg/ml) solution containing ligands with 1.5 µl of reservoir solution (composed of 11–16% PEG 3350, 100 mM sodium cacodylate, 50 mM MgCl2, and 100 mM KCl). […] The pH for obtaining optimal crystals was 7.2–7.8. Before data collection, crystals were dipped in a freezing solution consisting of reservoir solution supplemented with the same concentration of ligands as in the original solution, as well as up to 35% PEG 3350, which eliminated the appearance of ice rings. Diffraction data were collected at the Diamond synchrotron radiation facility in Oxfordshire, U.K. on beamline I03 (for the M2PYK/Ala structure), I04-1 (for the M2PYK/Phe and the M2PYK/Trp structures), and I24 (for the M2PYK/Ser structure). All datasets were obtained from a single crystal flash-frozen in liquid nitrogen. A more detailed description and discussion of the crystallisation trials is in the Supplementary Material.
All four M2PYK structures were solved by molecular replacement using the program PHASER [40]. A monomer (Chain A) from the previously determined tetrameric structure of M2PYK (in R-state, PDB ID: 4B2D) served as the search model for the M2PYK/Ser structure. Chain A of a different M2PYK structure (in T-state, PDB ID: 4FXJ) was used as the search model for the M2PYK/Phe, M2PYK/Ala, and M2PYK/Trp structures. There were clear molecular replacement solutions for all structures. The resulting models were then subjected to 10 cycles of rigid body refinement using the program REFMAC [41]. Afterwards, manual changes were made to models to adjust side chain conformations and to add additional residues to the N terminus using COOT [42]. The models were then subjected to several rounds of translation libration screw refinement and restrained refinement, and ligand molecules were added where clear unbiased Fo–Fc electron density was observed. Water molecules were added to the model using COOT, and after several rounds of restrained refinement, R/Rfree values converged.

For another assay, the target named is T2, M1PYK (Homo sapiens, UniProt P14618).
T2 construct: made in house; host or cells: Escherichia coli BL21(DE3), pET28a
The assay is described as follows: PYK activity modulator screen (LDH-coupled enzymatic activity assay). Format: biochemical. As to conditions: 2.5 mM ligand, sub-saturating PEP and ADP; for inhibition of M1PYK activity: pH 7.4, 37°C, relative to no ligand. Here is the method:
(§1) For the identification of PYK activity modulators, enzymatic activity assays were performed as follows. A 1.9 µl aliquot of 20 mg/ml M1 or M2PYK in PBS-CM was added individually into […] of different amino acids at 5 mM in PBS-CM at pH 7.4 followed by an incubation at 37°C for 10 min. Then, the same volume of assay buffer [PBS-CM supplemented with 10 mM MgCl2, 100 mM KCl, 1 mM NADH, 40 µmol/min ml lactate dehydrogenase (LDH), as well as sub-saturating substrates PEP (1 mM) and ADP (0.8 mM)] was added into the protein solution and mixed (so the concentrations of all reagents were halved). The decrease in absorbance at 340 nm (the absorbance of NADH) was measured for 5 min at 37°C using a plate reader. PEP, ADP, LDH, NADH, FBP and all amino acids were from Sigma–Aldrich.
(§2) FBP was used as a positive control. The reaction was performed after pre-incubation in the presence of sub-saturating substrates in PBS at pH 7.4 at 37°C as described in Experimental Procedures.

The target of assay [6] is T1, M2PYK. The description is as above. It is filed as biochemical. The settings on record: 2.5 mM ligand, sub-saturating PEP and ADP; for activation of M2PYK activity: pH 7.4, 37°C, relative to no ligand. The protocol:
as §1, §2

For assay [7], the system named is M2PYK. Details: method as in Chaneton et al. 2012. As to conditions: 4 nM M2PYK; ref Chaneton et al. 2012; cited from earlier work.
The target in assay [8] is T1, M2PYK. Also on record: method as in PMID 23530218. The settings on record: previously shown; cited from earlier work.
The next assay has as its system cell proliferation. Also on record: method as in PMID 23530218. The settings on record: via activation or inhibition of M2PYK; cited from earlier work.

T2 sequence (P14618 1-531 isoform P14618-2): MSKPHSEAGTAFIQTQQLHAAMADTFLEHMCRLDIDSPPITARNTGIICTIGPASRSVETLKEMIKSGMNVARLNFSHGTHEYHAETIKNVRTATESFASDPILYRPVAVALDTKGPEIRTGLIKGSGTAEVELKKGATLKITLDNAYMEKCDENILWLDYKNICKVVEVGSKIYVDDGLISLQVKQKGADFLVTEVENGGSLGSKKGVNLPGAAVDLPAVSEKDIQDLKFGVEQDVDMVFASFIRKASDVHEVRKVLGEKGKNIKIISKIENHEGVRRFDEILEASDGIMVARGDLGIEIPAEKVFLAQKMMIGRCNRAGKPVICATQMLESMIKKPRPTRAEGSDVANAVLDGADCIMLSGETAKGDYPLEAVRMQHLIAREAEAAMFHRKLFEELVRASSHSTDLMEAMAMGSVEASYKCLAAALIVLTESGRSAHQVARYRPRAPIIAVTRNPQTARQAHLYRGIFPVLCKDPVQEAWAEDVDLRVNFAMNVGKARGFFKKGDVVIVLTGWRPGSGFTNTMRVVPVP
T1 sequence (P14618 whole entry, the tested form may be a part): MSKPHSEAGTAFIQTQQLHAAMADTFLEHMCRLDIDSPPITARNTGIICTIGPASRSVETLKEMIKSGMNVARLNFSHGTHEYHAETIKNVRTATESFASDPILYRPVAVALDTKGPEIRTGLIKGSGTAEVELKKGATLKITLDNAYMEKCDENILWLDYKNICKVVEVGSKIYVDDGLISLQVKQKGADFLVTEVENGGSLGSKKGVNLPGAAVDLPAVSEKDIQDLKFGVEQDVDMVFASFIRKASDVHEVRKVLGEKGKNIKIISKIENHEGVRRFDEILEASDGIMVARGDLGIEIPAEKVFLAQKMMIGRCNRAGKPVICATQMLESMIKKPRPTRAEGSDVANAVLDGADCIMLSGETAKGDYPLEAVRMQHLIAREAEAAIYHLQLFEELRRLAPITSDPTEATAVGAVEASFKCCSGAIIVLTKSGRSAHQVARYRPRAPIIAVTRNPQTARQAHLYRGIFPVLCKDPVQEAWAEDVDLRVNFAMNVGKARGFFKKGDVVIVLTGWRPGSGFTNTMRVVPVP

The Ki is the dissociation constant of the complex between target and ligand, obtained from inhibition or displacement. For orientation: IC50 means the midpoint of a concentration-inhibition curve. Turning to `C[C@H](N)C(=O)O` [alanine, L-alanine], the “mode of inhibition of M2PYK” value on M2PYK [1] was “allosteric uncompetitive inhibitors”. Also, on M2PYK [2] (alanine 200–300 µM in the presence of serine ∼0.6 mM), the M2PYK activity is given as roughly 65%. The compound also gave an M2PYK activity at M2PYK [2] (alanine 200–300 µM, no serine) of roughly 10%. For the same compound, at M2PYK [2], the Ki was 62 µM and the IC50 was found to be 124 µM. Also, at M2PYK [3], the “effect on M2PYK oligomerisation (tetramer versus monomer)” value (“effect … (tetramer versus monomer)” below) was “stabilised tetramers over monomers”. Moreover, at M2PYK [4], the “oligomeric state of M2PYK at low protein concentration” value (“oligomeric state of M2PYK” below) was “predominantly tetrameric”. Moreover, the “Conformation of M2PYK tetramer in co-crystal structure” value (shortened to “Conformation of M2PYK tetramer”) at M2PYK [5] is reported as “T-state”.

On to `N=C(N)NCCC[C@H](N)C(=O)O` [arginine], for which the “inhibition of M1PYK activity” value at M1PYK was determined as 10%.

`NCC(=O)O` [glycine]: the “inhibition of M1PYK activity” value against M1PYK was determined as 10%.

As to `N[C@@H](Cc1c[nH]cn1)C(=O)O` [histidine], on M2PYK [6], the “M2PYK activity normalised to activity in absence of ligands (100%)” value was “higher than 120%” and the “activation of M2PYK activity” value was roughly 30%.

As to `NCCCC[C@H](N)C(=O)O` [lysine], the “inhibition of M1PYK activity” value against M1PYK was 10%.

For `N[C@@H](CO)C(=O)O` [serine, L-serine], at M2PYK [6], the “M2PYK activity normalised to activity in absence of ligands (100%)” value is “higher than 120%” and the “activation of M2PYK activity” value is reported as roughly 30%. For the same compound, the “effect … (tetramer versus monomer)” value on M2PYK [3] is reported as “stabilised tetramers over monomers”. The “oligomeric state of M2PYK” value on M2PYK [4] is on record as “predominantly tetrameric”. Also, the “Conformation of M2PYK tetramer” value at M2PYK [5] is recorded as “R-state”. In addition, the “effect on M2PYK activity in end-point assay” value in the assay on M2PYK [7] is “showed activation”.

Regarding `N[C@@H](Cc1c[nH]c2ccccc12)C(=O)O` [tryptophan, L-tryptophan], the “mode of inhibition of M2PYK” value at M2PYK [1] is given as “allosteric uncompetitive inhibitors”. Besides, at M2PYK [2], the Ki is 222 µM and the IC50 came to 445 µM. Moreover, the “effect … (tetramer versus monomer)” value at M2PYK [3] was “stabilised tetramers over monomers”. On M2PYK [4], the “oligomeric state of M2PYK” value is on record as “predominantly tetrameric”. Moreover, on M2PYK [5], the “Conformation of M2PYK tetramer” value is listed as “T-state”.

In the case of “fructose 1,6-bisphosphate [FBP, reference compound]”, on M1PYK, the “regulatory effect on M1PYK activity” value is “little or no regulatory effect”. Further, the “activation of M2PYK activity” value on M2PYK [6] is listed as roughly 40%. Further, the “effect on M2PYK oligomerisation” value on M2PYK [8] is “stabilised the tetrameric form”. The “effect on M2PYK activity in end-point assay” value with M2PYK [7] is given as “showed activation”. In the assay with cell proliferation, the “effect on cell proliferation” value is reported as “inhibits cell proliferation”.
